Test results taken from PMC8536644, “Enigmatic mechanism of the N-vinylpyrrolidone hepatocarcinogenicity in the rat” (Archives of Toxicology, 2021).
Where “and” joins values, the source holds several entries; their conditions need not be identical. Equal values may be shown once. Read-outs that look alike come from different tables or passages of the source.

Key:
[1] = test system: p53 transcription factor activity; design: method as in ToxCast (comptox.epa.gov dashboard); settings: ref ToxCast (comptox.epa.gov dashboard); read-out: AC50 of the p53 transcription factor activity modulation; cited from earlier work
[2] = Trypan Blue viability of the single cell suspension, liver; assay type: in vivo, rat; settings: rat, inhaled
[3] = test system: palmitoyl CoA oxidase/acyl CoA oxidase; test: Cyanide-insensitive palmitoyl-CoA oxidase assay, liver cytosol (PPARα marker); assay type: in vivo, rat; settings: male rats
Protocol: Cyanide-insensitive palmitoyl-CoA oxidase was determined essentially according to the method by Lazarow ([1981]), specifically as follows:
Five µL of the liver cytosol (prepared as described in the preceding chapter “Aryl hydrocarbon receptor”) derived from the NVP-treated (and untreated control) male rats were mixed in a centrifugal analyzer Cobas Fara II (Hoffmann La Roche) with 250 µL reaction mixture consisting of 28.2 mL 50 mM Tris buffer pH 8.01, 150 µL 2% Triton-X-100, 300 µL 1 mM FAD, 300 µL 10 mM CoA, 150 µL 1.5% BSA, 90 µL 0.33 mM dithiothreitol, 300 µL 20 mM NAD and after homogenization 300 µL 100 mM KCN. The reaction was started by adding 5 µL of 5.03 µM palmitoyl-CoA aqueous solution. The increase of the absorption at ʎ = 334 nm due to NADH formation was determined and translated to palmitoyl-CoA oxidase U/L by the Cobas Fara II software.

[4] = test system: rat liver cells; test: Comet assay in presence of FPG, liver; settings: liver, with FPG, 5 days; for TI (%), mean of medians from 2 slides: individual animals
Protocol: (§1) Animals were anesthetized by 3.5% isoflurane (approximately 3 min, evaporator Dräger Vapor 19.3) and then killed by cervical dislocation. The liver was removed and its left lateral lobe used for the Comet assay. The remainder of the liver was washed in saline and then in two aliquots shock frozen in liquid nitrogen and stored at − 80 °C for later examinations. Subsequently the lung was removed from the dead animal. Its left lobe was used for the Comet assay and the remainder treated as described above for the liver. Thereafter the femora were removed for the preparation of the bone marrow.
(§2) The Comet assay was performed under alkaline conditions according to the principles described by Singh et al. ([1988]) and Tice et al. ([2000]).
(§3) Liver and lung cells were obtained essentially as described by Hartmann et al. ([2004]) and by the Japanese Center for the Validation of Alternative Methods (JaCVAM [2009]). Single cells were obtained within 1 h after killing of the animals in order to minimize DNA damage during the preparation.
(§4) The organ parts (see above) were washed in mincing buffer (50 mM EDTA in HBSS [without Ca^2+ and Mg^2+] pH 7.5: DMSO 9:1 (v/v), the latter added shortly before use, stored at 4 °C), cut into 1 to 2-mm pieces in ice-cold mincing buffer and transferred to a cell sieve with 70-µm pores. The viability of the cell suspension was evaluated by the Trypan Blue Assay (Strober [2001]).
(§5) 100 µL of the obtained cell suspension was mixed at 37 °C with 900 µL Low Melting Agarose (LMA) (0.7% agarose in phosphate-buffered saline [PBS] [Biochrom, Berlin, Germany] without Ca^2+ and Mg^2+). 100 µL of this mixture was transferred to a slide, which had been coated with Normal Melting Agarose (NMA) (0.6% agarose in PBS without Ca^2+ and Mg^2+). The slides were protected with a cover slip and the agarose was hardened at approximately 4 °C. The cover slips were then removed and the slides put over night at 4 °C into lysis buffer (2.5 M NaCl, 125 mM NaOH, 127 mM EDTA, 10 mM Tris/NaOH, pH 10; 1% Triton X-100 and 10% DMSO (v/v), the latter two added before use) in order to lyse the cell membrane, nuclear membrane and remove the histone.
(§6) The then following procedures were performed in a shaded room to minimize UV-mediated DNA damage during the procedures.
Those slides which were destined to be treated with the DNA base excision repair enzyme FPG (Sigma Aldrich, Steinheim, Germany) were washed (3 times for 5 min) with FPG buffer (0.04 M HEPES, 0.5 mM EDTA, 0.1 M KCl, pH 8; add shortly before use bovine serum albumin [BSA] to a final concentration of 0.02%). Subsequently 50 µL FPG-enzyme-buffer (prepared shortly prior to use by 30-fold dilution of the following suspension in FPG buffer: 7 µL FPG-enzyme (14 U) and 70 µL glycerol in 623 µL FPG-Puffer, stored at − 80 °C) was pipetted on the slide which was covered with a cover slide and incubated for 30 min at 37 °C while being placed on a humid filter paper. After hardening of the agarose cover slips were removed.
(§7) Remaining lysis buffer or FPG buffer was removed by immersing/washing the slides in PBS (without Ca^2+ and Mg^2+).

[5] = test system: rat liver cells; test: Comet assay, conventional (no FPG), liver; settings: for Hedgehogs/100 cells (mean ± SD) / TI (%) (mean ± SD) / TI (%), mean of medians from 2 slides: liver, no FPG, 5 days; for TI (%), mean of medians from 2 slides: individual animals
Protocol: as §1, §2, §3, §4, §5, §6, §7
The slides were then placed into the electrophoresis chamber, which was cooled and protected from light. Slides were covered with electrophoresis buffer (0.3 M NaOH, 1 mM EDTA, pH > 13) carefully avoiding air bubbles. The DNA was allowed to unwind (20 min). Thereafter the electrophoresis was started (25 V, 300 mA, […], 30 min). The slides were then washed (2 times 5 min) in neutralization buffer (0.4 M Tris/HCl, pH 7.5), dehydrated and fixed in 100% ethanol (1 min), dried at room temperature overnight and stored at room temperature protected from dust.
Quantitative evaluation of the Comet assays was performed by fluorescence microscopy after DNA staining with ethidium bromide.

C=CN1CCCC1=O [NVP, N-vinylpyrrolidone]
AC50 [1]: 40 nM | viability at 5 days ([2]; both sexes, Wistar Crl:WI (Han), liver and lung single cell suspensions, either of the two organs (liver, lung) after NVP treatment, read-out: Viability (dye exclusion test)): > 90% | viability at 5 days ([2]; both sexes, Wistar Crl:WI (Han), liver single cell suspension, liver cells, NVP-exposed, read-out: Viability, range of the individual animals): 90 to 99% | viability at 5 days ([2]; female, Wistar, liver, 5 ppm, liver, female, Comet with FPG (Table 9), 5 ppm inhalation, 5 days, individual animals, read-out: Individual viability (%)): 99% | viability at 5 days ([2]; female, Wistar, liver, 5 ppm, liver, female, Comet with FPG (Table 9), 5 ppm inhalation, 5 days, read-out: Viability (%) (mean ± SD)): 99 ± 1% | viability at 5 days ([2]; female, Wistar, liver, 5 ppm, liver, female, no FPG, 5 ppm inhalation, 5 days, individual animals, read-out: Individual viability (%)): 98% | viability at 5 days ([2]; female, Wistar, liver, 5 ppm, liver, female, no FPG, 5 ppm inhalation, 5 days, read-out: Viability (%) (mean ± SD)): 97 ± 1% | viability at 5 days ([2]; female, Wistar, liver, 10 ppm, liver, female, Comet with FPG (Table 9), 10 ppm inhalation, 5 days, individual animals, read-out: Individual viability (%)): 98% | viability at 5 days ([2]; female, Wistar, liver, 10 ppm, liver, female, Comet with FPG (Table 9), 10 ppm inhalation, 5 days, read-out: Viability (%) (mean ± SD)): 98 ± 1% | viability at 5 days ([2]; female, Wistar, liver, 10 ppm, liver, female, no FPG, 10 ppm inhalation, 5 days, individual animals, read-out: Individual viability (%)): 96% | viability at 5 days ([2]; female, Wistar, liver, 10 ppm, liver, female, no FPG, 10 ppm inhalation, 5 days, read-out: Viability (%) (mean ± SD)): 96 ± 1% | viability at 5 days ([2]; female, Wistar, liver, 20 ppm, liver, female, Comet with FPG (Table 9), 20 ppm inhalation, 5 days, individual animals, read-out: Individual viability (%)): 98% | viability at 5 days ([2]; female, Wistar, liver, 20 ppm, liver, female, Comet with FPG (Table 9), 20 ppm inhalation, 5 days, read-out: Viability (%) (mean ± SD)): 98 ± 1% | viability at 5 days ([2]; female, Wistar, liver, 20 ppm, liver, female, no FPG, 20 ppm inhalation, 5 days, individual animals, read-out: Individual viability (%)): 96% | viability at 5 days ([2]; female, Wistar, liver, 20 ppm, liver, female, no FPG, 20 ppm inhalation, 5 days, read-out: Viability (%) (mean ± SD)): 97 ± 1% | viability at 5 days ([2]; male, Wistar, liver, 5 ppm, liver, male, Comet with FPG (Table 8), 5 ppm inhalation, 5 days, individual animals, read-out: Individual viability (%)): 97% | viability at 5 days ([2]; male, Wistar, liver, 5 ppm, liver, male, Comet with FPG (Table 8), 5 ppm inhalation, 5 days, read-out: Viability (%) (mean ± SD)): 98 ± 1% | viability at 5 days ([2]; male, Wistar, liver, 5 ppm, liver, male, no FPG, 5 ppm inhalation, 5 days, individual animals, read-out: Individual viability (%)): 92% | viability at 5 days ([2]; male, Wistar, liver, 5 ppm, liver, male, no FPG, 5 ppm inhalation, 5 days, read-out: Viability (%) (mean ± SD)): 95 ± 3% | viability at 5 days ([2]; male, Wistar, liver, 10 ppm, liver, male, Comet with FPG (Table 8), 10 ppm inhalation, 5 days, individual animals, read-out: Individual viability (%)): 99% | viability at 5 days ([2]; male, Wistar, liver, 10 ppm, liver, male, Comet with FPG (Table 8), 10 ppm inhalation, 5 days, read-out: Viability (%) (mean ± SD)): 98 ± 2% | viability at 5 days ([2]; male, Wistar, liver, 10 ppm, liver, male, no FPG, 10 ppm inhalation, 5 days, individual animals, read-out: Individual viability (%)): 96% | viability at 5 days ([2]; male, Wistar, liver, 10 ppm, liver, male, no FPG, 10 ppm inhalation, 5 days, read-out: Viability (%) (mean ± SD)): 96 ± 1% | viability at 5 days ([2]; male, Wistar, liver, 20 ppm, liver, male, Comet with FPG (Table 8), 20 ppm inhalation, 5 days, individual animals, read-out: Individual viability (%)): 100% | viability at 5 days ([2]; male, Wistar, liver, 20 ppm, liver, male, Comet with FPG (Table 8), 20 ppm inhalation, 5 days, read-out: Viability (%) (mean ± SD)): 99 ± 1% | viability at 5 days ([2]; male, Wistar, liver, 20 ppm, liver, male, no FPG, 20 ppm inhalation, 5 days, individual animals, read-out: Individual viability (%)): 98% | viability at 5 days ([2]; male, Wistar, liver, 20 ppm, liver, male, no FPG, 20 ppm inhalation, 5 days, read-out: Viability (%) (mean ± SD)): 97 ± 1% | Cyanide-insensitive palmitoyl CoA oxidase activity in liver cytosol ([3]; 5 ppm): 5.43 ± 0.71 nmol/min/mg protein | Cyanide-insensitive palmitoyl CoA oxidase activity in liver cytosol ([3]; 10 ppm): 5.47 ± 0.71 nmol/min/mg protein | Cyanide-insensitive palmitoyl CoA oxidase activity in liver cytosol ([3]; 20 ppm, statistically significantly reduced): 4.68 ± 0.71 nmol/min/mg protein | Hedgehogs/100 cells (mean ± SD) ([4]; female, 5 ppm inhalation): 4 ± 2 /100 cells | TI (%), mean of medians from 2 slides ([4]; female, 5 ppm inhalation): 6.5% and 8.4% and 9.0% and 9.3% and 5.6% and 7.1% | Hedgehogs/100 cells (mean ± SD) ([4]; female, 10 ppm inhalation): 3 ± 2 /100 cells | TI (%) (mean ± SD) ([4]; female, 10 ppm inhalation): 7.9 ± 2.74% | TI (%), mean of medians from 2 slides ([4]; female, 10 ppm inhalation): 5.5% and 10.7% and 5.6% and 5.3% and 9.4% and 11.0% | Hedgehogs/100 cells (mean ± SD) ([4]; female, 20 ppm inhalation): 4 ± 2 /100 cells | TI (%) (mean ± SD) ([4]; female, 20 ppm inhalation): 7.0 ± 1.97% | TI (%), mean of medians from 2 slides ([4]; female, 20 ppm inhalation): 9.2% and 5.2% and 8.3% and 6.3% and 8.6% and 4.4% | Hedgehogs/100 cells (mean ± SD) ([4]; male, 5 ppm inhalation): 1 ± 1 /100 cells | TI (%) (mean ± SD) ([4]; male, 5 ppm inhalation): 5.3 ± 1.09% | TI (%), mean of medians from 2 slides ([4]; male, 5 ppm inhalation): 4.3% and 5.8% and 5.2% and 4.0% and 7.0% and 5.7% | Hedgehogs/100 cells (mean ± SD) ([4]; male, 10 ppm inhalation): 2 ± 1 /100 cells | TI (%) (mean ± SD) ([4]; male, 10 ppm inhalation): 6.1 ± 1.67% | TI (%), mean of medians from 2 slides ([4]; male, 10 ppm inhalation): 8.3% and 7.5% and 3.7% and 4.9% and 6.5% and 5.8% | Hedgehogs/100 cells (mean ± SD) ([4]; male, 20 ppm inhalation): 2 ± 1 /100 cells | TI (%) (mean ± SD) ([4]; male, 20 ppm inhalation): 5.0 ± 1.09% | TI (%), mean of medians from 2 slides ([4]; male, 20 ppm inhalation): 6.8% and 4.4% and 5.0% and 4.7% and 3.6% and 5.6% | Hedgehogs ([5]; NVP-treated liver cells, with or without FPG): 1–5% | Hedgehogs/100 cells (mean ± SD) ([5]; female, 5 ppm inhalation): 3 ± 3 /100 cells | TI (%) (mean ± SD) ([5]; female, 5 ppm inhalation): 1.0 ± 0.40% | TI (%), mean of medians from 2 slides ([5]; female, 5 ppm inhalation): 0.9% and 1.1% and 1.7% and 0.8% and 0.6% | Hedgehogs/100 cells (mean ± SD) ([5]; female, 10 ppm inhalation): 4 ± 4 /100 cells | TI (%) (mean ± SD) ([5]; female, 10 ppm inhalation): 0.9 ± 0.48% | TI (%), mean of medians from 2 slides ([5]; female, 10 ppm inhalation): 1.3% and 0.6% and 0.5% and 1.4% and 0.3% | Hedgehogs/100 cells (mean ± SD) ([5]; female, 20 ppm inhalation): 3 ± 2 /100 cells | TI (%) (mean ± SD) ([5]; female, 20 ppm inhalation): 0.7 ± 0.34% | Hedgehogs/100 cells (mean ± SD) ([5]; male, 5 ppm inhalation): 3 ± 2 /100 cells | TI (%) (mean ± SD) ([5]; male, 5 ppm inhalation): 0.9 ± 0.22% | TI (%), mean of medians from 2 slides ([5]; male, 5 ppm inhalation): 1.2% and 0.9% and 0.6% and 0.7% and 1.1% | Hedgehogs/100 cells (mean ± SD) ([5]; male, 10 ppm inhalation): 3 ± 1 /100 cells | TI (%) (mean ± SD) ([5]; male, 10 ppm inhalation): 1.0 ± 0.68% | TI (%), mean of medians from 2 slides ([5]; male, 10 ppm inhalation): 0.7% and 2.4% and 1.0% and 0.6% | Hedgehogs/100 cells (mean ± SD) ([5]; male, 20 ppm inhalation): 3 ± 1 /100 cells | TI (%) (mean ± SD) ([5]; male, 20 ppm inhalation): 0.7 ± 0.34% | TI (%), mean of medians from 2 slides ([5]; male, 20 ppm inhalation): 1.2% and 0.8% and 0.5% and 1.0% and 0.3%
